Laboratory results from patent publication US6773708B1, “Use of xanthophylls, astaxanthin e.g., for treatment of autoimmune diseases, chronic viral and intracellular bacterial infections” (AstaReal AB, priority 1999, dated 2004).

Test system: Lichen Ruber Planus
Test: Case study: patient with Lichen ruber planus
Format: in vivo, human
Conditions: Patient 4; several years, orally and by injection to local inflammation areas
Experimental: During the last five years reports have been received from patients taking the commercial dietary supplement capsules of the algal meal of Haematococcus pluvialis, Astaxin®, containing 4 mg astaxanthin. The daily doses recommended as an antioxidant is one capsule per day.
Patient 4. […] The symptoms of the disease were inter alia open wounds which had not healed […] had been treated with anti-inflammatory agents, such as cortisone, for several years, orally and also by injection directly to the local inflammation areas. […] They started to take 4 capsules of Astaxin per day, and after some weeks visible alleviation of the symptoms started to show up. […] During this period, the patient […] phased out the cortisone treatment. The dose of Astaxin was lowered to 2 capsules per day when they were asymtomatic. However, the symptoms returned in connection with a common cold.

C[C@]12CCC(=O)C=C1CC[C@@H]1[C@@H]2C(=O)C[C@@]2(C)[C@H]1CC[C@]2(O)C(=O)CO [cortisone]
result of previous anti-inflammatory treatment: has not led to any result
